Source: ChEMBL document CHEMBL6109054, “Development of novel GI-centric prostaglandin E2 receptor type 4 (EP4) agonist prodrugs as treatment for ulcerative colitis and other intestinal inflammatory diseases” (Bioorg Med Chem Lett, 2025)
Blank lines part the entries; values can stand above or below the molecule they belong to. Activity calls are given as the source filed them. No cut-off for these calls is given here.

Tests used:
[1] = Prodrug conversion in human plasma assessed as 7(R)-(2-((R,E)-4,4-difluoro-3-hydroxy-4-phenyl)but-1-en-1-yl)-5-oxopyrrolidin-1-yl)heptanoic acid release by measuring half-life; assay type: ADME, cell-free
[2] = Prodrug conversion in mouse gut assessed as 7(R)-(2-((R,E)-4,4-difluoro-3-hydroxy-4-phenyl)but-1-en-1-yl)-5-oxopyrrolidin-1-yl)heptanoic acid formation by measuring half-life at 100 uM; assay type: ADME, tissue-based
[3] = Drug uptake in mouse blood administered as rectal dose and measured after 1 hrs; assay type: ADME, tissue-based; settings: route rec, read-out: Ct
[4] = Toxicity in rectal dosed mouse assessed as body weight loss administered for 8 days; assay type: organism-based; settings: in vivo, other, 192 h, route rec, time 8 day
[5] = Elimination half-life in rat; assay type: ADME; settings: in vivo, read-out: beta t1/2
[6] = Prodrug conversion in mouse blood assessed as 7(R)-(2-((R,E)-4,4-difluoro-3-hydroxy-4-phenyl)but-1-en-1-yl)-5-oxopyrrolidin-1-yl)heptanoic acid formation administered orally with 1 mg/kg equivalent dose of active drug and measured after 0.5 hrs by LC/MS/MS analysis; assay type: ADME, organism-based; settings: in vivo, po
[7] = Prodrug conversion in mouse blood assessed as 7(R)-(2-((R,E)-4,4-difluoro-3-hydroxy-4-phenyl)but-1-en-1-yl)-5-oxopyrrolidin-1-yl)heptanoic acid formation administered orally with 1 mg/kg equivalent dose of active drug and measured for 1 to 4 hrs by LC/MS/MS analysis; assay type: ADME, organism-based; settings: in vivo, po, time 1-4 hrs
[8] = Prodrug conversion in mouse blood assessed as concentration of 7(R)-(2-((R,E)-4,4-difluoro-3-hydroxy-4-phenyl)but-1-en-1-yl)-5-oxopyrrolidin-1-yl)heptanoic acid administered as rectal dose and measured after 1 hr; assay type: ADME, tissue-based; settings: other, route rec
[9] = system: Mus musculus; test: Anti-inflammatory activity in rectal dosed DSS-induced mouse model assessed as reduction in inflammatory cell infiltration treated as prodrug for 8 days; assay type: functional, organism-based; settings: route rec, time 8.0 day
[10] = Prodrug conversion in blood of DSS-induced colitis mouse model assessed as 7(R)-(2-((R,E)-4,4-difluoro-3-hydroxy-4-phenyl)but-1-en-1-yl)-5-oxopyrrolidin-1-yl)heptanoic acid formation administered as rectal dose and measured after 4 days by LC/MS/MS analysis; assay type: ADME, tissue-based; settings: other, 96 h, route rec, time 4 day
[11] = Stability of compound in PBS buffer at pH 7.2 at 200 ug/mL measured over 170 hrs; assay type: physicochemical; settings: pH 7.2, 170 h, at 200 µg/mL
[12] = Stability of compound in PBS buffer at pH 9 at 200 ug/mL measured over 170 hrs; assay type: physicochemical; settings: pH 9, 170 h, at 200 µg/mL
[13] = Prodrug release in PBS buffer at pH 2 assessed as release of 7(R)-(2-((R,E)-4,4-difluoro-3-hydroxy-4-phenyl)but-1-en-1-yl)-5-oxopyrrolidin-1-yl)heptanoic acid by measuring half-life; assay type: ADME
[14] = Prodrug conversion in mouse serum assessed as 7(R)-(2-((R,E)-4,4-difluoro-3-hydroxy-4-phenyl)but-1-en-1-yl)-5-oxopyrrolidin-1-yl)heptanoic acid release by measuring half-life; assay type: ADME, cell-free
[15] = Prodrug conversion in mouse colon assessed as 7(R)-(2-((R,E)-4,4-difluoro-3-hydroxy-4-phenyl)but-1-en-1-yl)-5-oxopyrrolidin-1-yl)heptanoic acid formation by measuring half-life; assay type: ADME, tissue-based; settings: in vivo
[16] = Prodrug conversion in mouse ileum assessed as 7(R)-(2-((R,E)-4,4-difluoro-3-hydroxy-4-phenyl)but-1-en-1-yl)-5-oxopyrrolidin-1-yl)heptanoic acid formation by measuring half-life; assay type: ADME, tissue-based; settings: in vivo
[17] = system: Mus musculus; test: Anti-inflammatory activity in rectal dosed DSS-induced colitis mouse model assessed as change in disease activity index (DAI) treated as prodrug for 8 days; assay type: functional, organism-based; settings: route rec, time 8.0 day
[18] = system: Mus musculus; test: Anti-inflammatory activity in rectal dosed DSS-induced colitis mouse model assessed as increase in colon length treated as prodrug for 8 days; assay type: functional, organism-based; settings: route rec, time 8.0 day
[19] = system: Mus musculus; test: Anti-inflammatory activity in rectal dosed DSS-induced mouse model assessed as reduction in epithelial cell damage treated as prodrug for 8 days; assay type: functional, organism-based; settings: route rec, time 8.0 day
[20] = Prodrug conversion in blood of DSS-induced colitis mouse model assessed as 7(R)-(2-((R,E)-4,4-difluoro-3-hydroxy-4-phenyl)but-1-en-1-yl)-5-oxopyrrolidin-1-yl)heptanoic acid formation administered as rectal dose and measured after 7 days by LC/MS/MS analysis; assay type: ADME, tissue-based; settings: other, 168 h, route rec, time 7 day

SMILES: CCOC(=O)CCCCCCN1C(=O)CC[C@@H]1/C=C/[C@@H](OC(C)OP(=O)(O)O)C(F)(F)c1ccccc1 (stereo partly specified)
t1/2 [1]: 10.4 h
t1/2 [2]: < 0.083 h

SMILES: CCCC(O[C@H](/C=C/[C@H]1CCC(=O)N1CCCCCCC(=O)OCC)C(F)(F)c1ccccc1)OP(=O)(O)O (stereo partly specified)
t1/2 [1]: 12.7 h
t1/2 [2]: < 0.083 h

SMILES: O=C(O)CCCCCCN1C(=O)CC[C@@H]1/C=C/[C@@H](OC(OP(=O)(O)O)c1ccccc1)C(F)(F)c1ccccc1 (stereo partly specified)
Drug metabolism [6]: metabolite_detected
Drug metabolism [7]: metabolite_detected
Drug metabolism [8]: 2.6 ng/mL

SMILES: CCOC(=O)CCCCCCN1C(=O)CC[C@@H]1/C=C/[C@@H](OC(OP(=O)(O)O)c1ccccc1)C(F)(F)c1ccccc1 (stereo partly specified)
t1/2 [1]: 45 h
t1/2 [2]: 0.667 h

Continued, in another order:

concentration at 1 h [3]: 35.8 ng/mL
half-life [5]: < 1 h
SMILES: O=C(O)CCCCCCN1C(=O)CC[C@@H]1/C=C/[C@@H](O)C(F)(F)c1ccccc1
Activity [4]: Non-toxic

half-life [5]: > 24 h
SMILES: O=C1CC[C@H](/C=C/[C@@H](O)C(F)(F)c2ccccc2)N1CCCCCCc1nnn[nH]1

Drug metabolism [10]: 1.5 ng/mL
Stability [11]: Stable
Stability [12]: Stable
t1/2 [13]: ~ 300 hr
t1/2 [1]: 1.5 h
t1/2 [14]: 3.3 h
t1/2 [2]: < 0.083 h
t1/2 [15]: 0.333 h
t1/2 [16]: 9 min
Drug metabolism [6]: metabolite_detected
Drug metabolism [7]: metabolite_detected
Drug metabolism [8]: 5.4 ng/mL
Drug metabolism [20]: 1.5 ng/mL
SMILES: O=C(O)CCCCCCN1C(=O)CC[C@@H]1/C=C/[C@@H](OCOP(=O)(O)O)C(F)(F)c1ccccc1
Activity [9]: Active
Activity [4]: Non-toxic
Activity [17]: Not active; Little Or No Change Observed
Activity [18]: Active
Activity [19]: Active
